Measured values published in patent US8530235B2, “Medium that supports culture of an oocyte and modulation of granulosa cell apoptosis” (Adelaide Research & Innovation Pty Ltd., priority 2005, dated 2013).

Key:
[1] = tested on: activin receptor-like kinases (ALKs) 4, 5 and 7; conditions: competitive ATP binding site kinase inhibitor; without effecting ALKs 1, 2, 3 or 6 or other cellular kinases; cited from earlier work
cumulus-oocyte complexes = test: Study IV: oocyte developmental competence after IVM, IVF and embryo culture; format: cell-based, Bovine
Experimental: Unless otherwise specified, all chemicals and reagents were purchased from Sigma (St Louis, Mo.). Bovine ovaries were collected from local abattoirs and transported to the laboratory in warm saline (30-35° C.). COCs were aspirated from antral follicles (3 to 5 mm diameter) using an 18-gauge needle and a 10-ml syringe containing ˜2 ml aspiration medium (Hepes-buffered. Tissue Cultured Medium-199; TCM-199. ICN Biochemicals, Irvine, Calif., USA) supplemented with 50 μg/ml kanamycin, 0.5 mM sodium pyruvate, 50 μg/ml heparin and 4 mg/ml fatty acid-free bovine serum albumin (FAF-BSA; ICPbio Ltd, Aukland, NZ). Intact COCs with compact cumulus vestments>˜5 cell layers and evenly pigmented cytoplasm were selected under a dissecting microscope and washed twice in Hepes-buffered TCM-199 and once in Hepes-buffered TCM-199 supplemented with 10% fetal calf serim (FCS) (Invitrogen, Carlsbad, Calif.). The basic medium for oocyte maturation was Bovine VitroMat (Cook Australia, Eight Mile Plains, Qld, Australia), a medium based on the ionic composition of bovine follicular fluid. […] Complexes were cultured in pre-equilibrated 300 ? l drops overlaid with mineral oil and incubated at 39° C. with 5% CO2 in humidified air for 24 hour. […]
Recombinant mouse GDF9 and recombinant ovine BMP15 were produced and partially purified in-house as previously described using transfected 293 human embryonic kidney cell lines (293H) originally donated by O. Ritvos (University of Helsinki). Control conditioned medium (hereafter designated ‘293H’) was produced from untransfected 293H cells and subjected to the same chromatography procedures as GDF9 and BMP15 conditioned media.
Consequently, SB-431542 potently antagonizes the ALK 4/5 ligands; TGF-β1, the activins and GDF9, without affecting BMP signalling (Inman et al., 2002; Gilchrist et al., 2006). […] Follistatin-288 was generously donated by S. Shimasaki (University of California San Diego, USA) and we have previously shown that this binding protein antagonizes the bioactivities of native OSFs and recombinant BMP15 in CCs.
In vitro production of embryos was undertaken using defined, serum-free media (Bovine Vitro series of media, Cook Australia). Frozen semen from a single bull of proven fertility was used in all experiments. Briefly, thawed semen was layered over a discontinuous (45%: 90%) Percoll gradient (Amersham Bioscience) and centrifuged (RT) for 20-25 mins at 700 g. The supernatant was removed and the sperm pellet was washed with 500 μl Bovine VitroWash (Cook Australia) and centrifuged for a further 5 minutes at 200 g. Spermatozoa were resuspended with IVF medium (Bovine VitroFert, Cook Australia), then added to the fertilization media drops (Bovine VitroFert, supplemented with 0.01 mM heparin, 0.2 mM penicillamine and 0.1 mM hypotaurine) at a final concentration of 1×106 spermatozoa/ml. COCs were inseminated at a density of 10 μl of IVF medium per COC for 24 h, at 39° C. in 6% CO2 in humidified air.
CCs were removed by gentle pipetting 23-24 h post insemination and five presumptive zygotes were transferred into 20 μl drops of pre-equilibrated Cook Bovine VitroCleave medium (Cook Australia) and cultured under mineral oil at 38.5° C. in 7% O2, 6% CO2, balance N2, for five days (day 1 to day 5).
On Day 5, embryos were transferred in groups of 5-6 to 20 μl drops of pre-equilibrated Bovine VitroBlast (Cook Australia) at 38.5° C. overlaid with mineral oil and cultured to Day 8. Embryos were assessed for quality at Day 8 according to the definitions presented in the Manual of the International Embryo Transfer Society (Stringfellow, 1998) and were performed independently and blinded by an experienced bovine embryologist.
Cell counts were performed using a modified version of the technique described by (Fouladi-Nashta et al., 2005). […]

mural granulosa cells = test: Mural granulosa cell DNA synthesis, 3H-thymidine incorporation; format: cell-based, marmoset monkey, Callithrix jacchus; conditions: GC from large antral follicles
Experimental: Mural GC from large antral follicles were cultured for 24h and thymidine incorporation was stimulated with 175 ng/ml GDF9. […] Bars/points represent means+/−SEM from 3 replicate experiments expressed as a fold change relative to control.
Follicles were manually excised and separated into 3 size classes: periantral (PA; 0.42-0.66 mm), small antral (SA; 0.66-1.5 mm) and large antral (LA; >1.5 mm). GCs from each follicle size were collected and pooled, then washed twice in bicarbonate-buffered tissue culture medium-199 (B-TCM) supplemented with 0.3 mg/ml of polyvinyl alcohol (PVA, Sigma). Depending on the individual experiments, mural GCs (1×10^5 cells/ml), hormones, inhibitors and media were added to wells of 96-well plates (Falcon) to give a final volume of 125 μl. Within each experiment, all treatments were carried out in at least duplicate wells and each experiment was replicated on at least 3 occasions. Cells were cultured in an atmosphere of 37° C., 96% humidity in 5% CO2 in air for 18 hours, followed by a further 6 hour pulse of 15.4 kBq tritiated thymidine (3H-thymidine, ICN) under the same conditions.
Seven adult female marmosets were primed with […] for 6 days, whole ovaries were removed on day 7, follicles manually excised, and GC were then collected from 3 size classes: periantral (PA; 0.42-0.66 mm), small antral (SA; 0.66-1.5 mm) and large antral (LA; >1.5 mm). Four different approaches were utilized to examine GDF9 function in GC. […] To examine the GDF9 signalling pathway, cultured GC from LA follicles were transfected with either a CAGA-luciferase or BRE-luciferase reporter construct and treated with various TGF-β superfamily growth factors or co-cultured with mouse oocytes. In order to determine the effects of GDF9 on marmoset GC proliferation, we employed a GC bioassay whereby after 24 h ^3H-thymidine incorporation is assessed as an indicator of DNA synthesis and cellular proliferation. […] In another experiment, GC were treated with an increasing dose of SB431542, an activin-like kinase (ALK) 4/5/7 inhibitor, in the presence of GDF9+/−IGF1.

NC(=O)c1ccc(-c2nc(-c3ccc4c(c3)OCO4)c(-c3ccccn3)[nH]2)cc1 [SB-431542, reference compound]
kinase selectivity [1]: specifically antagonizing the activities of activin receptor-like kinases (ALKs) 4, 5 and 7
blastocyst development of control COCs treated with antagonist (cumulus-oocyte complexes; 4 μM SB-431542 or 10 μg/ml follistatin-288, compared to untreated COCs): significantly (P<0.05) decreased
effect on cleavage rate (cumulus-oocyte complexes; Experiments 3 & 4, 4 μM SB-431542, 175 ng/ml GDF9, 10% v/v BMP15, 10% v/v 293H): no influence
increase of blastocyst yields by GDF9 or BMP15 on addition of the respective antagonist (cumulus-oocyte complexes; SB-431542 against GDF9, follistatin against BMP15): ablated
DNA synthesis stimulated by GDF9 in the presence of inhibitor (mural granulosa cells; 175 ng/ml GDF9, 24 h): dose-dependently inhibited
stimulatory effects of GDF9 on DNA synthesis at 1 μM inhibitor (mural granulosa cells; 1 μM): completely eliminate
